Structure (SMILES) | melting point [°C]
O=C(O)C1=Cc2cc(Cl)ccc2N(Cc2ccc(Cl)cc2)C1C(F)(F)F (stereo not shown) [Example 167, 6-Chloro-1-[(4-Chlorophenyl)methyl]-1,2-dihydro-2-(trifluoromethyl)-3-quinolinecarboxylic acid] | 250 to 253
O=C(O)C1=Cc2cc(Cl)c(S(=O)(=O)c3ccc(Cl)cc3)cc2OC1C(F)(F)F (stereo not shown) [Example 194, 6-Chloro-7-[(4-chlorophenyl)sulfonyl]-2-(trifluoromethyl)-2H-1-benzopyran-3-carboxylic acid] | 240.4 to 241.5
Cc1ccc2c(c1)OC(C(F)(F)F)C(C(=O)O)=C2 (stereo not shown) [Example 3, 7-Methyl-2-trifluoromethyl-2H-1-benzopyran-3-carboxylic acid] | 202.1 to 203.1
COc1cccc(-c2cc(Cl)cc3c2OC(C(F)(F)F)C(C(=O)O)=C3)c1 (stereo not shown) [Example 126, 6-Chloro-8-(3-methoxyphenyl)-2-(trifluoromethyl)-2H-1-benzopyran-3-carboxylic acid] | 173.1 to 177.4
COc1ccc(-c2cc(Cl)cc3c2OC(C(F)(F)F)C(C(=O)O)=C3)cc1 (stereo not shown) [Example 141, 6-Chloro-8-(4-methoxyphenyl)-2-trifluoromethyl-2H-1-benzopyran-3-carboxylic acid] | 194 to 196
CS(=O)(=O)c1ccc(-c2cc(Cl)cc3c2OC(C(F)(F)F)C(C(=O)O)=C3)cc1 (stereo not shown) [Example 128, 6-Chloro-8-[(4-methylsulfonyl)phenyl]-2-(trifluoromethyl)-2H-1-benzopyran-3-carboxylic acid] | 286.5 to 287.8
O=C(O)C1=Cc2cc(C(O)C(F)(F)F)ccc2OC1C(F)(F)F (stereo not shown) [Example 173, 6-(2,2,2-Trifluoro-1-hydroxyethyl)-2-(trifluoromethyl)-2H-1-benzopyran-3-carboxylic acid] | 114 to 120
CCC1=C(C(=O)O)C(C(F)(F)F)Oc2ccc(Cl)cc21 (stereo not shown) [Example 212, 6-Chloro-4-ethyl-2-trifluoromethyl-2H-1-benzopyran-3-carboxylic acid] | 170.9 to 172.1
O=C(O)C1=Cc2cc(Cl)c(Oc3ccc(Cl)c(F)c3)cc2OC1C(F)(F)F (stereo not shown) [Example 205, 6-Chloro-7-(4-chloro-3-fluorophenoxy)-2-(trifluoromethyl)-2H-1-benzapyran-3-carboxylic acid] | 206.8 to 207.4
O=C(O)C1=Cc2cc(S(=O)(=O)Cc3ccccc3)ccc2OC1C(F)(F)F (stereo not shown) [Example 70, 6-[(Phenylmethyl)sulfonyl]-2-(trifluoromethyl)-2H-1-benzopyran-3-carboxylic acid] | 172 to 176
O=C(O)C1=Cc2cc(Cl)cc(/C=N/O)c2OC1C(F)(F)F (stereo not shown) [Example 108, 6-Chloro-8-[(hydroxyimino)methyl]-2-(trifluoromethyl)-2H-1-benzopyran-3-carboxylic acid] | 246.9 to 247.9
O=C(O)C1=Cc2cc(C(F)(F)F)ccc2NC1C(F)(F)F (stereo not shown) [Example 163, 6-(Trifluoromethyl)-1,2-dihydro-2-(trifluoromethyl)-3-quinolinecarboxylic acid] | 150 to 156
O=C(O)C1=Cc2cc(Cl)cc(COCc3ccccc3)c2OC1C(F)(F)F (stereo not shown) [Example 113, 6-Chloro-8-(benzyloxymethyl)-2-(trifluoromethyl)-2H-1-benzopyran-3-carboxylic acid] | 133.8 to 135.4
Nc1ccc2c(c1)C=C(C(=O)O)C(C(F)(F)F)O2 (stereo not shown) [Example 36, 6-Amino-2-trifluoromethyl-2H-1-benzopyran-3-carboxylic acid] | 126 to 133
O=C(O)C1=Cc2cccc(F)c2OC1C(F)(F)F (stereo not shown) [Example 17, 8-Fluoro-2-trifluoromethyl-2H-1-benzopyran-3-carboxylic acid] | 197.7 to 210.1
NS(=O)(=O)c1ccc2c(c1)C=C(C(=O)O)C(C(F)(F)F)O2 (stereo not shown) [Example 51, 6-Aminosulfonyl-2-trifluoromethyl-2H-1-benzopyran-3-carboxylic acid] | 187.9 to 189.8
